According to patent US12630497B2, “Compound having malate dehydrogenase inhibitory activity and pharmaceutical composition for preventing or treating cancer comprising same as active ingredient” (DONGGUK UNIVERSITY INDUSTRY-ACADEMIC COOPERATION FOUNDATION, priority 2017, dated 2026):

Columns and labels:
[1] = test system: HIF-1α; test: HIF-1α inhibitory activity, immunoblot in hypoxic HCT-116 cells; format: cell-based; conditions: HCT-116, hypoxia (1% oxygen) 6 hours; 2.5, 5 and 10 μM
Description: (§1) Hypoxia-inducible factor-1α (HIF-1α) is a factor that affects radioresistance and chemoresistance in solid cancer and malignancy of cancer. More specifically, an HCT-116 colorectal cancer cell line was suspended in DMEM containing 5% fetal bovine serum (FBS), transferred to a 6-well plate (5×10^5 cells/well), and cultured in a 37 D cell incubator maintaining 5% carbon dioxide for 24 hours. To induce the accumulation of HIF-1a protein by hypoxia, the cells were cultured under 1% oxygen, 94% nitrogen and 5% carbon dioxide conditions for 6 hours. The HCT-116 cells were disrupted using a radioimmunoprecipitation assay buffer (RIPA buffer, Millipore), thereby obtaining a cell extract, and 10 μg each of the cell extract was isolated through SDS-PAGE, transferred to a polyvinylidene fluoride (PVDF) membrane, followed by sequentially binding of a HIF-1α antibody (BD Biosciences), a HIF-1β antibody (BD Biosciences), a β-Actin (SantaCruz) and horseradish peroxidase (HRP)-labeled secondary antibody (SantaCruz) to confirm protein expression.

[2] = test system: HIF-1β; test: HIF-1β protein expression, immunoblot in hypoxic HCT-116 cells; format: cell-based; conditions: HCT-116, hypoxia 6 hours; 2.5, 5 and 10 μM
Description: as §1

[3] = test system: HCT-116 cells; test: Mitochondrial oxygen consumption rate (XF24 extracellular flux analyzer); format: cell-based
Description: More specifically, a mitochondrial oxygen consumption rate (OCR) was measured using a XF24 extracellular flux analyzer (Seahorse Bioscience). HCT-116 cells (1×10^5 cells) were cultured in a culture plate (XF24 cell culture plate) for 24 hours, the culture medium was exchanged with a XF assay medium, and then the cells were incubated in a carbon dioxide-free cell incubator for 1 hour. After the mitochondrial oxygen consumption rate was measured three times in drug-free cells, oxygen consumption rates were measured three times after the administration of oligomycin (1 μM), which is an ATP synthesis inhibitor, three times after the administration of carbonyl cyanide p-trifluoromethoxyphenylhydrazone (0.5 μM), which is a chemical uncoupler, and three times after the administration of rotenone (1 μM) and antimycin A (1 μM), which are electron transport chain inhibitors.

[4] = test system: HCT-116 cells; test: Intracellular oxygen concentration, hypoxia-sensitive fluorescent probe MAR; format: cell-based; conditions: hypoxia 6 hours, MAR probe 0.5 μM
Description: Afterward, an intracellular change in fluorescence intensity by hypoxia was measured and quantified using the IncuCyte® live-cell analysis system (Essen BioScience).

[5] = test system: HCT-116 colorectal cancer cell line; test: Antitumor effect in cancer cell-transplanted mouse model; format: in vivo
Description: (§2) More specifically, a plate-cultured HCT-116 colorectal cancer cell line was obtained by trypsin treatment, washed with a serum-free medium, and diluted to a concentration of 2.5×10^7 cells/mL. Afterward, the diluted cells (5×10^6 cells/200 μl) were administered to a side of each of seven 6-week-old female nude mice (SLC-Central Lab Animal Inc., Korea), which are specific pathogen-free (SPF) Balb/c mice, through subcutaneous injection.

[6] = Body weight of tumor-transplanted nude mice; format: in vivo, mouse; conditions: 20 mg/kg orally once a day
Description: as §2

[7] = target: T1, MDH1 (Homo sapiens, UniProt P40925); test: MDH1 inhibitory activity (in vitro, NADH oxidation, absorbance 340 nm); format: biochemical; design: purchased Biovision; conditions: 0.25 nM MDH1 recombinant protein, 200 μM oxaloacetate, 30 minutes
T1 sequence (P40925 1-334): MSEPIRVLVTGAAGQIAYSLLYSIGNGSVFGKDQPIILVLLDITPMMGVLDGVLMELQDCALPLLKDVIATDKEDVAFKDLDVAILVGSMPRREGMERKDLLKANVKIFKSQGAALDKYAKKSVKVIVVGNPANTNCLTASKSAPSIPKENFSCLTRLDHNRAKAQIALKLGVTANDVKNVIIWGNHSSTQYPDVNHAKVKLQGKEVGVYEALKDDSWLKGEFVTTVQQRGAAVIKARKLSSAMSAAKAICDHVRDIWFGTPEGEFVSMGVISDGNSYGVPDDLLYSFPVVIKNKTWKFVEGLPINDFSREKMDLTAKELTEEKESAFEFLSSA
Description: The inhibitory activity of the prepared compounds against MDH1 recombinant protein and the MDH2 recombinant proteins prepared in each of Experimental Examples 1-1, 1-2, 1-3 and 1-4 was measured. More specifically, 0.25 nM MDH1 recombinant protein (Biovision) or MDH2 recombinant protein was added to 200 μM oxaloacetate, nicotinamide adenine dinucleotide (NADH), the compound prepared in Example 1 and an MDH assay buffer (100 mM potassium phosphate, pH 7.4) to allow a reaction for 30 minutes. Afterward, a change in NADH concentration in the solution due to NADH oxidation (NAD^+) by an MDH1 or MDH2 enzyme was analyzed by measuring absorbance at 340 nm.

[8] = target: T1, MDH1; test: MDH1 enzyme kinetics with varied NADH (Lineweaver-Buck plot)

Compound: COC(=O)c1cccc(NC(=O)CCOc2ccc(C(C)(C)CC(C)(C)C)cc2)c1 [Compound 9-2, Methyl 3-(3-(4-(2,4,4-trimethylpentan-2-yl)phenoxy)propanamido)benzoate]
- HIF-1α protein accumulation [1]: inhibits HIF-1α protein accumulation in a concentration-dependent manner
- HIF-1β protein expression [2]: without affecting HIF-1β protein expression
- basal respiration rate [3]: decrease in a concentration-dependent manner
- maximum respiration rate [3]: decrease in a concentration-dependent manner
- mitochondrial oxygen consumption rate [3]: inhibited a mitochondrial oxygen consumption rate
- intracellular oxygen concentration [4]: increased
- tumor formation (size or volume) reduced ([5]; 20 mg/kg orally once a day, nude mice, versus vehicle): 76.4%
- tumor weight ([5]; after 24 days of administration, 20 mg/kg orally once a day): 163.0 ± 117.5 mg
- tumor weight reduced ([5]; after 24 days, compared to non-treated mice): 67.0%
- Tumor size (mm^3) ([5]; day 0, 20 mg/kg orally once a day): 94.1 ± 11.0 mm^3
- Tumor size (mm^3) ([5]; day 3, 20 mg/kg orally once a day): 97.3 ± 9.8 mm^3
- Tumor size (mm^3) ([5]; day 5, 20 mg/kg orally once a day): 101.6 ± 15.7 mm^3
- Tumor size (mm^3) ([5]; day 7, 20 mg/kg orally once a day): 119.9 ± 29.3 mm^3
- Tumor size (mm^3) ([5]; day 10, 20 mg/kg orally once a day): 111.0 ± 19.0 mm^3
- Tumor size (mm^3) ([5]; day 12, 20 mg/kg orally once a day): 124.2 ± 35.5 mm^3
- Tumor size (mm^3) ([5]; day 14, 20 mg/kg orally once a day): 159.9 ± 44.6 mm^3
- Tumor size (mm^3) ([5]; day 17, 20 mg/kg orally once a day): 187.9 ± 78.5 mm^3
- Tumor size (mm^3) ([5]; day 19, 20 mg/kg orally once a day): 241.4 ± 162.8 mm^3
- Tumor size (mm^3) ([5]; day 21, 20 mg/kg orally once a day): 258.3 ± 195.7 mm^3
- Tumor size (mm^3) ([5]; day 24, 20 mg/kg orally once a day): 277.5 ± 216.0 mm^3
- change in body weight ([6]; 24 days): no significant change in body weight
- Body weight ([6]; day 0): 21.2 ± 0.6 g
- Body weight ([6]; day 3): 21.5 ± 0.8 g
- Body weight ([6]; day 5): 21.8 ± 0.7 g
- Body weight ([6]; day 7): 21.6 ± 1.1 g
- Body weight ([6]; day 10): 22.2 ± 1.0 g
- Body weight ([6]; day 12): 22.7 ± 0.7 g
- Body weight ([6]; day 14): 22.7 ± 1.0 g
- Body weight ([6]; day 17): 22.6 ± 0.8 g
- Body weight ([6]; day 19): 22.4 ± 0.5 g
- Body weight ([6]; day 21): 22.5 ± 0.7 g
- Body weight ([6]; day 24): 22.3 ± 0.8 g
- IC50 [7]: 1 to 5 µM
- MDH inhibiting mechanism ([8]; NADH 60-300 μM, 600 μM oxaloacetate): competitively inhibiting MDH
- maximum velocity (Vmax) ([8]; as NADH concentration changes): does not change
